Structures are written as SMILES. Counter-ions that a name gives are not always drawn.

One assay deals with Human plasma kallikrein (Homo sapiens (Human), UniProt P03952). The experiment in a line: In vitro plasma kallikrein inhibition assay (chromogenic substrate D-Pro-Phe-Arg-pNa, absorbance at 405 nm, IC50 determination). The class given is biochemical.
Sequence of Human plasma kallikrein (P03952 391-638): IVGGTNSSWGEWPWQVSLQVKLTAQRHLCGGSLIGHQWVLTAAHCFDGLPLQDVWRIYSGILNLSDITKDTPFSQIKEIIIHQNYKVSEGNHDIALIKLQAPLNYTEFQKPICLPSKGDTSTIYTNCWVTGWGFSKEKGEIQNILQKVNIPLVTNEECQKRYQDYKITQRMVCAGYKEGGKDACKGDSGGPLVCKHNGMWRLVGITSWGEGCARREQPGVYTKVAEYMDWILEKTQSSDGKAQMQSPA
Sequence of Human plasma kallikrein (P03952 20-390 partner): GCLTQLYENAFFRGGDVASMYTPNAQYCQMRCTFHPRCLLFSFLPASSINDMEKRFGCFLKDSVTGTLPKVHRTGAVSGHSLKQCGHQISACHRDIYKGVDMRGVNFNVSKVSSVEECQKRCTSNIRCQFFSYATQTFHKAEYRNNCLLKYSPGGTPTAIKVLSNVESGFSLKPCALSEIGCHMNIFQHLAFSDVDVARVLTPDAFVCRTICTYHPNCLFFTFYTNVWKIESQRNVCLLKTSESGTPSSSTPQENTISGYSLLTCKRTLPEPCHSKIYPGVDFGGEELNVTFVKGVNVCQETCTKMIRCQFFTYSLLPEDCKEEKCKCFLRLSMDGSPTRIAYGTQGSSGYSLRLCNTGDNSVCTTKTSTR
Details: not given
Here is the method:
In Vitro Plasma Kallikrein Inhibition Assay
The chromogenic substrate D-Pro-Phe-Arg-pNa, 2HCl (BIOPHEN CS-31(02) from Hyphen BioMed, Neuville-Sur-oise, France) was dissolved in 5 mL deionized water and stored at 4° C. […] All other chemicals were of analytical grade.
A stock solution of 7 μM in 50% glycerol was stored at −20° C.
Enzyme reactions were conducted in “assay buffer” comprised of 20 mM HEPES at pH 7.4, 150 mM NaCl, 0.1% PEG-8000 and 0.01% Triton X-100.
Both enzyme and substrate were diluted in assay buffer.
Plate measurements were conducted using a SPECTROStar Nano reader (BMG Labtech, San Francisco, Calif., USA). […] We used discrete wavelength, precise, kinetic reads of 15 cycles with a 60 sec cycle time.
Determination of IC50 values
The test compound was dissolved in 100% DMSO. The compounds were serially diluted in DMSO in a 7 point dose response. For the assays, 66.5 μL of protease solution (protease in assay buffer) was added per well followed by the addition of 8.5 μL of compound in 100% DMSO. […] After 30 min. incubation at room temperature on an orbital shaker, the reactions were started by the addition of 10 μL substrate solution (in assay buffer, final assay concentration was 600 uM). After the addition of the substrate solution the final DMSO concentration was 10%. The plate was placed again on the shaker for 5 sec, spun at 2000 rpm for 5 sec and read on the spectrophotometer. […] The IC50 value was calculated from the plot of rate vs. inhibitor concentration by a 4 parameter logistic equation: y=A+((B−A)/([…]))
where y is the rate at the inhibitor concentration, x. A is the minimum y value at the highest inhibitor concentration and B is the y value in the absence of inhibitor, C is the IC50 value and D is the slope factor. The curve fitting was conducted with the non-linear regression routine of the analysis software XLfit (IDBS, version 5.3.1).
On to `Cc1cc(N)nc(C)c1CNC(=O)c1ccc2c(c1)C1OC2c2ccc(-c3ccccc3F)cc21` (stereo not shown), for which the “KLKB1 pIC50” value was found to be 6.91.
`Cc1cc(N)nc(C)c1CNC(=O)c1ccc2c(c1)C1OC2c2cc(N3CCN(C(=O)c4ccccc4)CC3)ccc21` (stereo not shown): the “KLKB1 pIC50” value turned out to be 6.55.
Take `Cc1cc(N)nc(C)c1CNC(=O)c1ccc2c(c1)C1OC2c2ccc(Br)cc21` (stereo not shown): the “KLKB1 pIC50” value stood at 6.
On to `Cc1c(CNC(=O)c2ccc3c(c2)C2OC3c3ccc(-c4cccc(F)c4F)cc32)c(F)cc2c1CNC2` (stereo not shown), for which the “KLKB1 pIC50” value is 5.
Still for that read-out and setting: in the case of `Cc1cc(N)nc(C)c1CNC(=O)c1ccc2c(c1)[C@H]1O[C@@H]2c2ccc(-c3ccc(F)cc3F)cc21` it was 4.44.

Still in this assay, the particulars now being: read-out: KLKB1 pIC50 (converted).
Consider `Cc1cc2c(c(C)c1CNC(=O)c1ccc3c(c1)C1OC3c3ccc(-c4ccc(F)cc4F)cc31)CNC2` (racemic), for which the IC50 is 316 nM.
Take `Cc1cc(N)nc(C)c1CNC(=O)c1ccc2c(c1)C1OC2c2ccccc21` (racemic) [Example 1]: the IC50 was 6310 nM.
Still for that read-out and setting: in the case of `Cc1cc(N)nc(C)c1CNC(=O)c1ccc2c(c1)C1OC2c2ccc(C[N+]3([O-])CCOCC3)cc21` (racemic) [Example 50] it was 3550 nM.
With `Cc1cc(N)nc(C)c1CNC(=O)c1ccc2c(c1)C1OC2c2ccc(Nc3ccn(C)n3)cc21` (racemic) [Example 51], the IC50 is 933 nM.
Same read-out and setting: next, `Cc1cc(N)nc(C)c1CNC(=O)c1ccc2c(c1)C1OC2c2cc(Nc3ccnn3C)ccc21` (racemic) [Example 54]: 457 nM; `Cc1cc(N)nc(C)c1CNC(=O)c1ccc2c(c1)C1OC2c2ccc(-c3ccc(F)cc3C#N)cc21` (racemic) [Example 69]: 6.31 nM.
Regarding `Cc1cc2c(c(C)c1CNC(=O)c1ccc3c(c1)C1OC3c3ccc(-c4cccc(F)c4F)cc31)CNC2` (racemic) [Example 100, trifluoroacetate salt], the IC50 is 6170 nM.
The same measure, in the same setting: in the case of `Cc1cc(N)nc(C)c1CNC(=O)c1ccc2c(c1)C1OC2c2ccc(-c3ccc(F)c(F)c3F)cc21` (racemic) [Example 104] it was 28.2 nM; in that of `COc1cc(N)nc(C)c1CNC(=O)c1ccc2c(c1)C1OC2c2ccc(-c3ccc(C)cc3C#N)cc21` (racemic) [Example 105], 15.1 nM; in that of `Cc1cc(N)nc(C)c1CNC(=O)c1ccc2c(c1)C1OC2c2ccc(-c3ccc(Cl)c(F)c3F)cc21` (racemic) [Example 106], 22.9 nM.
As to `Cc1cc(N)nc(C)c1CNC(=O)c1ccc2c(c1)C1OC2c2ccc(-c3ccc(F)c4c3OCO4)cc21` (racemic) [Example 108, trifluoroacetate salt], the IC50 is 25.7 nM.
Regarding `Cc1cc(N)nc(C)c1CNC(=O)c1ccc2c(c1)C1OC2c2ccc(-c3ncccc3F)cc21` (racemic) [Example 110, trifluoroacetate salt], the IC50 is 162 nM.
Turning to `Cc1cc(N)nc(C)c1CNC(=O)c1ccc2c(c1)C1OC2c2ccc(-c3ncc(F)cc3F)cc21` (racemic) [Example 116, (±)-N-[(6-amino-2,4-dimethylpyridin-3-yl)-methyl]-12-(3,5-difluoropyridin-2-yl)-15-oxatetracyclo[6.6.1.0^2,^7.0^9,1^4] pentadeca-2,4,6,9,11,13-hexaene-4-carboxamide], the IC50 is 45.7 nM.
On the same count and under the same terms, in the case of `COc1cc(N)nc(C)c1CNC(=O)c1ccc2c(c1)C1OC2c2ccc(Cn3cccn3)cc21` (racemic) [Example 117, (±)-N-[(6-amino-4-methoxy-2-methylpyridin-3-yl)methyl]-12-[(1H-pyrazol-1-yl)methyl]-15-oxatetracyclo[6.6.1.0^2,^7.0^9,1^4] pentadeca-2,4,6,9,11,13-hexaene-4-carboxamide] it was 3.98 nM.
With `Cc1ccc(-c2ccc3c(c2)C2OC3c3ccc(C(=O)NCc4c(C)cc(N)nc4C)cc32)c(F)c1F` (racemic) [Example 118, (±)-N-[(6-amino-2,4-dimethylpyridin-3-yl)-methyl]-12-(2,3-difluoro-4-methylphenyl)-15-oxatetracyclo[6.6.1.0^2,^7.0^9,1^4] pentadeca-2,4,6,9,11,13-hexaene-4-carboxamide], the IC50 was 64.6 nM.
For `Cc1cc(N)nc(C)c1CNC(=O)c1ccc2c(c1)C1OC2c2ccc(-c3ccc(C(F)(F)F)c(F)c3F)cc21` (racemic) [Example 119, (±)-N-[(6-amino-2,4-dimethylpyridin-3-yl)-methyl]-12-[2,3-difluoro-4-(trifluoromethyl)-phenyl]-15-oxatetracyclo[6.6.1.0^2,^7.0^9,1^4] pentadeca-2,4,6,9,11,13-hexaene-4-carboxamide], the IC50 was 427 nM.
As to `Cc1cc(N)nc(C)c1CNC(=O)c1ccc2c(c1)C1OC2c2ccc(Oc3ccc(F)cc3F)cc21` (racemic) [Example 120, (±)-N-[(6-amino-2,4-dimethylpyridin-3-yl)-methyl]-12-(2,4-difluorophenoxy)-15-oxatetra-cyclo[6.6.1.0^2,^7.0^9,1^4] pentadeca-2,4,6,9,11,13-hexaene-4-carboxamide], the IC50 is 676 nM.
Still for that read-out and setting: next, `Cc1cc(N)nc(C)c1CNC(=O)c1ccc2c(c1)C1OC2c2ccc(-c3ccc(F)c(C(F)(F)F)c3)cc21` (racemic) [Example 121, (±)-N-[(6-amino-2,4-dimethylpyridin-3-yl)-methyl]-12-[4-fluoro-3-(trifluoromethyl)phenyl]-15-oxatetracyclo [6.6.1.0^2,^7.0^9,1^4]pentdeca-2,4,6,9,11,13-hexaene-4-carboxamide]: 437 nM; `Cc1cc(N)nc(C)c1CNC(=O)c1ccc2c(c1)C1OC2c2ccc(Oc3ccc(F)c(F)c3)cc21` (racemic) [Example 122, (±)-N-[(6-amino-2,4-dimethylpyridin-3-yl)-methyl]-12-(3,4-difluorophenoxy)-15-oxatetracyclo[6.6.1.0^2,^7.0^9,1^4] pentadeca-2,4,6,9,11,13-hexaene-4-carboxamide]: 148 nM.
Consider `Cc1cc(N)nc(C)c1CNC(=O)c1ccc2c(c1)C1OC2c2ccc(-c3ccc4[nH]cnc4c3)cc21` (racemic) [Example 123, (±)-N-[(6-amino-2,4-dimethylpyridin-3-yl)-methyl]-12-(1H-1,3-benzodiazol-5-yl)-15-oxatetracyclo[6.6.1.0^2,^7.0^9,1^4] pentadeca-2,4,6,9,11,13-hexaene-4-carboxamide], for which the IC50 was 282 nM.
`Cc1cc2c(c(C)c1CNC(=O)c1ccc3c(c1)C1OC3c3ccc(-c4c(C)cccc4F)cc31)CNC2` (racemic) [Example 124, (±)-N-[(4,6-dimethyl-2,3-dihydro-1H-isoindol-5-yl)methyl]-12-(2-fluoro-6-methylphenyl)-15-oxatetracyclo[6.6.1.0^2,^7.0^9,1^4] pentadeca-2,4,6,9,11,13-hexaene-4-carboxamide]: the IC50 was 11500 nM.
Regarding `Cc1cc(CN)cc(C)c1CNC(=O)c1ccc2c(c1)C1OC2c2ccc(-c3ccc(Cl)c(F)c3F)cc21` (racemic) [Example 125, (±)-N-{[4-(aminomethy])-2,6-dimethylphenyl]-methyl}-12-(4-chloro-2,3-difluorophenyl)-15-oxatetracyclo-[6.6.1.0^2,^7.0^9,1^4]pentadeca-2,4,6,9,11,13-hexaene-4-carboxamide], the IC50 is 661 nM.
Consider `C#Cc1ccccc1-c1ccc2c(c1)C1OC2c2ccc(C(=O)NCc3c(C)cc(N)nc3C)cc21` (racemic) [Example 126, (±)-N-[(6-amino-2,4-dimethylpyridin-3-yl)-methyl]-12-(2-ethynylphenyl)-15-oxatetra-cyclo[6.6.1.0^2,^7.0^9,1^4]pentadeca-2,4,6,9,11,13-hexaene-4-carboxamide], for which the IC50 is 6310 nM.
As for `COc1ccc(-n2cnnn2)c(CNC(=O)c2ccc3c(c2)C2OC3c3ccc(-c4ccc(F)cc4F)cc32)c1` (racemic) [Example 127, (±)-12-(2,4-difluorophenyl)-N-{[5-methoxy-2-(1H-1,2,3,4-tetrazol-1-yl)phenyl]methyl}-15-oxatetracyclo[6.6.1.0^2,^7.0^9,1^4] pentadeca-2,4,6,9,11,13-hexaene-4-carboxamide], the IC50 is 977 nM.
Consider `Cc1cc(N)nc(C)c1CNC(=O)c1ccc2c(c1)C1OC2c2ccc(-c3cccc(S(C)(=O)=O)c3)cc21` (racemic) [Example 128, (±)-N-[(6-amino-2,4-dimethylpyridin-3-yl)-methyl]-12-(3-methanesulfonylphenyl)-15-oxatetracyclo[6.6.1.0^2,^7.0^9,1^4] pentadeca-2,4,6,9,11,13 hexaene-4-carboxamide], for which the IC50 is 933 nM.
On the same count and under the same terms, in the case of `COc1ccc(-n2cnnn2)c(CNC(=O)c2ccc3c(c2)C2OC3c3ccc(-c4ccc(F)cc4F)cc32)c1F` (racemic) [Example 129, (±)-12-(2,4-difluorophenyl)-N-{[2-fluoro-3-methoxy-6-(1H-1,2,3,4-tetrazol-1-yl)phenyl]-methyl}-15-oxatetracyclo [6.6.1.0^2,^7.0^9,1^4]-pentadeca-2,4,6,9,11,13-hexaene-4-carboxamide] it was 234 nM.
